The structures appear in SMILES notation.

In experiment [1] the test system is CAL-120 (Breast Carcinoma). Kind of experiment: Bliss excess, mean over the matrix (fraction); higher = more synergy. A digest of the protocol: (§1)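 After 24 hours at 37°C and 5% CO2 in 1536-well plates, cells in DMEM/F12 or RPMI plus 10% FBS received two-drug dose matrices for 72 hours. Viability came from CellTiter-Glo 2.0 luminescence and was scaled as inhibition, anchored at 0 by vehicle wells and at 1 by blank wells. Combination Emax is taken as the second-highest inhibition in the matrix, and Bliss excess as the observed combination effect less EA + EB − EA·EB, with EA and EB the single-agent effects.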

Experiment [2] has as its system CAL-62 (Thyroid Gland Carcinoma). Described as above. A digest of the protocol:
as §1

The next experiment concerns GB-1 (Glioblastoma). Described as above. A digest of the protocol: as §1
The subject of experiment [3] is GP5d (Colorectal Carcinoma). Described as above. A digest of the protocol:
as §1

In another experiment the test system is IST-MES1 (Mesothelioma). Described as above. A digest of the protocol:
as §1

Experiment [4] relates to LK-2 (Squamous Cell Lung Carcinoma). The experiment is described as above. Summed up:
as §1

Experiment [5] deals with MFE-280 (Endometrial Carcinoma). Described as above. A digest of the protocol: as §1
In experiment [6] the test system is NCI-H2342 (Lung Adenocarcinoma). The description is as above. A digest of the protocol: as §1
In experiment [7] the test system is OVMIU (Ovarian Carcinoma). The description is as above. A digest of the protocol:
as §1

Experiment [8] relates to PSN1 (Pancreatic Carcinoma). The experiment is described as above. A digest of the protocol:
as §1

The subject of experiment [9] is REH (B-Lymphoblastic Leukemia). The experiment is described as above. Summed up:
as §1

Another experiment concerns SF268 (Low Grade Glioma). The experiment is described as above. A digest of the protocol: as §1
Experiment [10] has as its system SHP-77 (Small Cell Lung Carcinoma). The experiment is described as above. Summed up: as §1
Experiment [11] relates to SK-PN-DW (Other Solid Carcinomas). Described as above. Summed up: as §1
Experiment [12] relates to VAL (B-Cell Non-Hodgkin's Lymphoma). Described as above. Summed up:
as §1

A further experiment concerns WM278 (Melanoma). The description is as above. Summed up: as §1
Experiment [13] concerns HSC-39 (Gastric Carcinoma). Put plainly: combination Emax (second highest fraction inhibited in the dose matrix, 72 h); higher = more inhibition; extreme values may be limits of the assay. A digest of the protocol:
as §1

Experiment [14] deals with LXF-289 (Lung Adenocarcinoma). The description is as above. Summed up: as §1
For experiment [15], the system named is RKN (Other Solid Carcinomas). Described as above. A digest of the protocol: as §1
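For Bliss excess, mean over the matrix in this document: after 72 h of two-drug dosing.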

On to `CN(C)CCCOc1ccc(-c2ccc3ncc4c(c3c2)n(C2CCOCC2)c(=O)n4C)cn1` [AZD0156] + C=CCn1c(=O)c2cnc(Nc3ccc(N4CCN(C)CC4)cc3)nc2n1-c1cccc(C(C)(C)O)n1 [AZD1775] (first compound max 1 µM, partner max 1 µM), for which the Bliss excess in experiment [1] is -0.0638; in [2], -0.0006; in the experiment on GB-1 (Glioblastoma) it was -0.0219; in experiment [3], -0.0369; in the experiment with IST-MES1 (Mesothelioma), -0.0624; in experiment [4], -0.048. For the same compound, the Bliss excess in experiment [5] was 0.0145; in experiment [6], -0.0612; in experiment [7], -0.0113; in [8] it was -0.0242; in experiment [9], -0.0158; in the experiment with SF268 (Low Grade Glioma) it was -0.0665. The Bliss excess was -0.0219 in [10], -0.0282 in [11], -0.0082 in experiment [12] and -0.0331 in the experiment on WM278 (Melanoma). The “combination Emax” value was determined as 0.946 in experiment [13], 0.264 in experiment [14] and 0.263 in [15].

As for `CN(C)CCCOc1ccc(-c2ccc3ncc4c(c3c2)n(C2CCOCC2)c(=O)n4C)cn1` [AZD0156] + CCN(CCO)CCCOc1ccc2c(Nc3cc(CC(=O)Nc4cccc(F)c4)[nH]n3)ncnc2c1 [AZD2811] (first compound max 1 µM, 7x7, partner max 1 µM), the Bliss excess in experiment [1] was -0.0164; in experiment [2], 0.007; in the experiment with GB-1 (Glioblastoma), -0.034; in experiment [3] it was 0.004; with IST-MES1 (Mesothelioma), -0.0439; in [4] it was 0.0201. In addition, the Bliss excess was 0.0072 in experiment [5]; -0.054 in [6]; -0.0411 in [7]; -0.0336 in experiment [8]; -0.0137 in experiment [9]; -0.0204 in the experiment on SF268 (Low Grade Glioma). The Bliss excess was -0.034 in [10], 0.0147 in experiment [11], -0.0341 in experiment [12] and -0.0259 in the experiment with WM278 (Melanoma). Further, the entries for the “combination Emax” value in [13], in experiment [14] and in [15] were 0.935, 0.507 and 0.132, respectively.

Consider `CN(C)CCCOc1ccc(-c2ccc3ncc4c(c3c2)n(C2CCOCC2)c(=O)n4C)cn1` [AZD0156] + C[C@@H]1COCCN1C2=NC(=NC(=C2)C3(CC3)[S@](=N)(=O)C)C4=C5C=CNC5=NC=C4 [AZD6738] (first compound max 1 µM, 7x7, partner max 10 µM), for which the Bliss excess in experiment [1] is 0.0142; in experiment [2] it was -0.0221; in the experiment on GB-1 (Glioblastoma), -0.0132; in experiment [3] it was 0.0291; in the experiment with IST-MES1 (Mesothelioma) it was -0.0679; in experiment [4], -0.0261. The Bliss excess in experiment [5] was -0.0116; in experiment [6] it was -0.0487; in experiment [7], -0.0072; in experiment [8], -0.0202; in experiment [9], -0.0277; in the experiment on SF268 (Low Grade Glioma), -0.0359. For the same compound, the Bliss excess in experiment [10] was 0.0535; in experiment [11], -0.075; in experiment [12], -0.0049; with WM278 (Melanoma), -0.0332. Moreover, the “combination Emax” value in experiment [13] was 1; in [14], 0.573; in [15] it was 0.206.

As for `C=CCn1c(=O)c2cnc(Nc3ccc(N4CCN(C)CC4)cc3)nc2n1-c1cccc(C(C)(C)O)n1` [AZD1775] + C[C@@H]1COCCN1C2=NC(=NC(=C2)C3(CC3)[S@](=N)(=O)C)C4=C5C=CNC5=NC=C4 [AZD6738] (first compound max 1 µM, partner max 10 µM), the Bliss excess in experiment [1] is 0.0021; in experiment [2], -0.061; in experiment [3], 0.0418; in the experiment on IST-MES1 (Mesothelioma), -0.025; in experiment [4] it was -0.0086; in experiment [5] it was 0.0536. Moreover, the Bliss excess in experiment [6] was -0.0687; in [7], -0.0635; in experiment [8], -0.0188; in experiment [9], 0.0406; in the experiment on SF268 (Low Grade Glioma) it was 0.0337; in experiment [10] it was 0.0598. In addition, the Bliss excess is 0.0186 in experiment [11], 0.0239 in experiment [12] and -0.0058 in the experiment with WM278 (Melanoma). Besides, the “combination Emax” value is 1 in experiment [13], 0.771 in [14] and 0.35 in [15].

Take `C=CCn1c(=O)c2cnc(Nc3ccc(N4CCN(C)CC4)cc3)nc2n1-c1cccc(C(C)(C)O)n1` [AZD1775] + O=C(c1cc(Cc2n[nH]c(=O)c3ccccc23)ccc1F)N1CCN(C(=O)C2CC2)CC1 [Olaparib] (first compound max 1 µM, partner max 10 µM): the Bliss excess is 0.0027 in experiment [1]; 0.0017 in experiment [2]; -0.0537 in the experiment with GB-1 (Glioblastoma); 0.0252 in experiment [3]; -0.0409 with IST-MES1 (Mesothelioma); -0.0148 in experiment [4]. The Bliss excess was -0.0652 in experiment [5]; -0.0372 in experiment [6]; -0.0135 in experiment [7]; -0.0585 in [8]; -0.0474 in [9]; -0.0312 with SF268 (Low Grade Glioma). The Bliss excess was -0.0436 in experiment [10], -0.0694 in experiment [11], -0.0411 in [12] and -0.0312 with WM278 (Melanoma). The “combination Emax” value is 0.988 in experiment [13], 0.355 in experiment [14] and 0.355 in [15].

In the case of `CCN(CCO)CCCOc1ccc2c(Nc3cc(CC(=O)Nc4cccc(F)c4)[nH]n3)ncnc2c1` [AZD2811] + C=CCn1c(=O)c2cnc(Nc3ccc(N4CCN(C)CC4)cc3)nc2n1-c1cccc(C(C)(C)O)n1 [AZD1775] (first compound max 1 µM, partner max 1 µM), the Bliss excess in experiment [1] is -0.0576; in experiment [2] it was 0.0127; with GB-1 (Glioblastoma), 0.0002; in [3], 0.08; in the experiment with IST-MES1 (Mesothelioma), -0.04; in experiment [4] it was -0.0952. Further, the Bliss excess in [5] was 0.0727; in experiment [6], -0.0052; in [7], -0.088; in experiment [8], -0.0007; in experiment [9] it was 0.0449; in the experiment on SF268 (Low Grade Glioma) it was -0.0005. Moreover, the Bliss excess was 0.0241 in experiment [10], 0.0431 in [11], -0.087 in experiment [12] and -0.0199 in the experiment on WM278 (Melanoma). Further, the “combination Emax” value was 0.985 in experiment [13], 0.573 in [14] and 0.281 in experiment [15].

Consider `CCN(CCO)CCCOc1ccc2c(Nc3cc(CC(=O)Nc4cccc(F)c4)[nH]n3)ncnc2c1` [AZD2811] + C[C@@H]1COCCN1C2=NC(=NC(=C2)C3(CC3)[S@](=N)(=O)C)C4=C5C=CNC5=NC=C4 [AZD6738] (first compound max 1 µM, 7x7, partner max 10 µM), for which the Bliss excess is -0.0464 in experiment [1]; -0.0568 in experiment [2]; -0.009 in the experiment with GB-1 (Glioblastoma); -0.0575 in experiment [3]; -0.0613 in the experiment on IST-MES1 (Mesothelioma); -0.064 in experiment [4]. Further, the Bliss excess is -0.0223 in experiment [5]; -0.0706 in [6]; -0.0446 in experiment [7]; -0.0366 in experiment [8]; -0.0518 in [9]; -0.027 with SF268 (Low Grade Glioma). For the same compound, the Bliss excess in experiment [10] is -0.0583; in experiment [11] it was -0.0306; in [12], -0.0336; in the experiment with WM278 (Melanoma), 0.0062. The “combination Emax” value in experiment [13] amounted to 1; in experiment [14], 0.516; in experiment [15], 0.206.

For the origin of these results see the supplement of paper PMC11061612.
